Results on 13 compounds are retold here after patent US12371432B2, “Haloallylamine compounds and application thereof” (TransThera Sciences (Nanjing), Inc., priority 2019, dated 2025).

Broadly, the IC50 is the concentration that inhibits the measured activity by half. A higher IC50 goes with weaker potency.

The target of one assay is T1, MAO-A (Homo sapiens, UniProt P21397).
T1 construct: purchased Active Motif
T1 sequence (P21397 1-527): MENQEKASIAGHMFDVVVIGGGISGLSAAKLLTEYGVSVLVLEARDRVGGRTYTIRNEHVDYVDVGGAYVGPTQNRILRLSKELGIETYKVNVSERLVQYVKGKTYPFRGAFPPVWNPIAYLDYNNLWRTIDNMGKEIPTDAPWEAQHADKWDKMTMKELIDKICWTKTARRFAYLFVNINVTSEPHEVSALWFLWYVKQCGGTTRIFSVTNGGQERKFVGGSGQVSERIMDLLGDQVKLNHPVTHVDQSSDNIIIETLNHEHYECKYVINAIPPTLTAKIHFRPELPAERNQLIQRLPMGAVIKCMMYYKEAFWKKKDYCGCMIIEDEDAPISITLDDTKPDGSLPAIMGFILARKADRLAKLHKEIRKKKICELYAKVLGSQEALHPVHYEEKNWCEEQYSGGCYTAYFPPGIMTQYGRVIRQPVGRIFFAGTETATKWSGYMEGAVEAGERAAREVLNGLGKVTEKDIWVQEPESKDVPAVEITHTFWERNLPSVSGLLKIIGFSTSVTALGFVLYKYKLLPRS
Nature of the assay: Selectivity against MAO-A enzyme (MAO-Glo). The class given is biochemical. On the procedure: (1) Instrument, Consumable and Reagent
Microplate reader (Perkin Elmer, EnVision), 384-well plate (Perkin Elmer), centrifuge (Eppendorf), MAO-Glo™ (Promega), MAO-A (Active Motif) and MAO-B (Active Motif).
(2) Preparation of Concentration Gradient Compound Solutions
An appropriate amount of the compound to be tested was taken, dissolved in DMSO to 10 mM and then stored. The solution was then gradiently diluted 4-fold with DMSO, 6 concentration gradients in total.
(3) Preparation of Enzyme Solutions
MAO-A/B mother liquor was diluted with the experimental buffer for MAO-A/B to obtain enzyme solutions of 2× concentrations.
(4) Preparation of Substrate Mixtures of 2× Concentrations
The mother liquor of MAO-A/B substrate mixture was diluted with the experimental buffer for MAO-A/B to obtain substrate mixtures of 2× concentrations.
200 nL compound solutions or solvents of different concentrations and 10 μL MAO-A/B enzyme solutions of 2× concentrations were added into a 384-well plate, centrifuged at 1,000 rpm for 60 s, shaken to be mixed uniformly and then incubated at room temperature for 15 min. 10 μL substrate mixtures of 2× concentrations were then added into each well, and reaction was initiated. The 384-well plate was centrifuged at 1,000 rpm for 60 s, shaken for a uniform mixing and then incubated at room temperature for 60 min. 20 μL of test stop solution was added to stop reaction. Centrifugation was performed at 1,000 rpm for 60 s, and shaking was performed for uniform mixing. After 30 min of standing, the microplate reader was used to perform reading.
The inhibition rate was calculated according to the following formula: Inhibition rate (%)=(Signal_Max-Signal_sample)/(Signal_Max-Signal_min)×100 (6) Fitting of Dose-Response Curve
With the log value of concentration as the X axis and the percent inhibition rate as the Y axis, the log (inhibitor) vs. response-variable slope of analysis software GraphPad Prism 5 was used to fit a dose-response curve, thus obtaining the IC50 value of activity of each compound against the enzyme.

The target of a further assay is T2, rhVAP-1 (Homo sapiens, UniProt Q16853).
T2 construct: purchased PeproTech
T2 sequence (Q16853 27-763 limits assumed): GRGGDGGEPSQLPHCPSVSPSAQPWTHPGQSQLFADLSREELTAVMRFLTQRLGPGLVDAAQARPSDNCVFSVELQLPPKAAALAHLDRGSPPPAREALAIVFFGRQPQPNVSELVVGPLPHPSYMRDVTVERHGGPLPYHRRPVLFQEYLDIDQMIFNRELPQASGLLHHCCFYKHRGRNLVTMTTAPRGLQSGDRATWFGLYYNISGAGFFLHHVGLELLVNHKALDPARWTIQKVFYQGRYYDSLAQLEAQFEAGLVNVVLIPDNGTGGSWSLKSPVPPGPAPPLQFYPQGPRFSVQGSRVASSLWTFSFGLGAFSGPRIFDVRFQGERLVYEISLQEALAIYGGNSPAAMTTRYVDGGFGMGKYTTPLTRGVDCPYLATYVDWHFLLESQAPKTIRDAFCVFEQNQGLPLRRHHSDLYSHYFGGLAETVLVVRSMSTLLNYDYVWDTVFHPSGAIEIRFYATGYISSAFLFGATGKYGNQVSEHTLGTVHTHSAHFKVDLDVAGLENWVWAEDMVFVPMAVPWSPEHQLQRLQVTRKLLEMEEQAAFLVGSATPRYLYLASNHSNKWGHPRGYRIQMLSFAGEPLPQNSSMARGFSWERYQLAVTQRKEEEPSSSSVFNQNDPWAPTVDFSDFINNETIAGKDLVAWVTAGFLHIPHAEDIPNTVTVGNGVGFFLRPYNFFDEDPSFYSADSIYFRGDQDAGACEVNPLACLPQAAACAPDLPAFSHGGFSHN
Nature of the assay: Inhibitory activity against rhVAP-1 enzyme (Biological Example 2). It is filed as biochemical. The note with it: Table 2; benzylamine substrate, Amplex Red/HRP. The method in brief:
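Enzyme was preincubated 30 min at 37 °C in PBS with a 10-point 3-fold compound dilution series. Benzylamine with Amplex Red/HRP was then added, and fluorescence (ex 580/em 620 nm) was read every 5 min for 30 min. Inhibition was taken from rates versus max wells, and IC50 from a variable-slope fit.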

Structures are written as SMILES. Where a name gives a salt, the structure may show the parent alone.

In the case of `Cc1c2c(cn1C/C(=C/F)CN)C(=O)N(C1CC1)CC2` [Compound A35 hydrochloride, (E)-2-(2-(aminomethyl)-3-fluoroallyl)-5-cyclopropyl-1-methyl-2,5,6,7-tetrahydro-4H-pyrrolo[3,4-c]pyridin-4-one], the half-maximal inhibitory concentration (IC50) at MAO-A worked out at 8810 nM; on rhVAP-1, 24 nM.
Turning to `NC/C(=C\F)Cn1c(Br)c2c(c1Br)C(=O)N(C1CC1)CC2` [Compound A33 hydrochloride, (E)-2-(2-(aminomethyl)-3-fluoroallyl)-1,3-dibromo-5-cyclopropyl-2,5,6,7-tetrahydro-4H-pyrrolo[3,4-c]pyridin-4-one], the half-maximal inhibitory concentration (IC50) against MAO-A came out at 55900 nM; at rhVAP-1, 23 nM.
For `CCN1CCc2nn(C/C(=C/F)CN)cc2C1=O` [Compound A6 hydrochloride, (E)-2-(2-(aminomethyl)-3-fluoroallyl)-5-ethyl-2,5,6,7-tetrahydro-4H-pyrazolo[4,3-c]pyridin-4-one] the same measures were 89100 nM and 23 nM.
On to `CCN1CCc2cn(C/C(=C/F)CN)cc2C1=O` [Compound A25, (E)-2-(2-(aminomethyl)-3-fluoroallyl)-5-ethyl-2,5,6,7-tetrahydro-4H-pyrrolo[3,4-c]pyridin-4-one], for which the results for the half-maximal inhibitory concentration (IC50) at MAO-A and at rhVAP-1 were greater than 100000 nM and 45 nM, respectively.
On to `CNC(=O)c1cnn(C/C(=C/F)CN)c1` [Compound B1, (E)-1-(2-(aminomethyl)-3-fluoroallyl)-N-methyl-1H-pyrazole-4-carboxamide], for which the IC50 against MAO-A was greater than 100000 nM; on rhVAP-1 it was 40 nM.
On to `NC/C(=C\F)Cn1cc2c(c1)C(=O)N(C1CC1)CC2` [Compound A22, (E)-2-(2-(aminomethyl)-3-fluoroallyl)-5-cyclopropyl-2,5,6,7-tetrahydro-4H-pyrrolo[3,4-c]pyridin-4-one], for which the figures for the IC50 on MAO-A and against rhVAP-1 were greater than 100000 nM and 44 nM, respectively.
For `Cl.NC/C(=C\F)Cn1cc2c(c1Cl)CCN(C1CC1)C2=O` [Compound A42 hydrochloride, (E)-2-(2-(aminomethyl)-3-fluoroallyl)-1-chloro-5-cyclopropyl-2,5,6,7-tetrahydro-4H-pyrrolo[3,4-c]pyridin-4-one] the same measures were 47600 nM and 17 nM.
For `CC(C)(C)N1CCc2nn(C/C(=C/F)CN)cc2C1=O` [Compound A7 hydrochloride, (E)-2-(2-(aminomethyl)-3-fluoroallyl)-5-tert-butyl-2,5,6,7-tetrahydro-4H-pyrazolo[4,3-c]pyridin-4-one] the same measures were greater than 100000 nM and 46 nM.
For `Cl.NC/C(=C\F)Cn1cc2c(c1Br)CCN(C1CC1)C2=O` [Compound A32 hydrochloride, (E)-2-(2-(aminomethyl)-3-fluoroallyl)-1-bromo-5-cyclopropyl-2,5,6,7-tetrahydro-4H-pyrrolo[3,4-c]pyridin-4-one] the same measures were 61000 nM and 15 nM.
Take `CCn1ccc2c(cnn2C/C(=C/F)CN)c1=O` [Compound A29 hydrochloride, (E)-1-(2-(aminomethyl)-3-fluoroallyl)-5-ethyl-1,5-dihydro-4H-pyrazolo[4,3-c]pyridin-4-one]: the values for the IC50 against MAO-A and at rhVAP-1 were 87700 nM and 60 nM, respectively.
For `NC/C(=C\F)Cn1cc2c(=O)n(C3CC3)ccc2n1` [Compound A41, (E)-2-(2-(aminomethyl)-3-fluoroallyl)-5-cyclopropyl-2,5-dihydro-4H-pyrazolo[4,3-c]pyridin-4-one] the same measures were greater than 100000 nM and 8 nM.
As for `NC/C(=C\F)Cn1ncc2c1CCN(C1CC1)C2=O` [Compound A2 hydrochloride, (E)-1-(2-(aminomethyl)-3-fluoroallyl)-5-cyclopropyl-1,5,6,7-tetrahydro-4H-pyrazolo[4,3-c]pyridin-4-one], the IC50 on MAO-A is greater than 100000 nM.
With `CCn1ccc2nn(C/C(=C/F)CN)cc2c1=O` [Compound A28 hydrochloride, (E)-2-(2-(aminomethyl)-3-fluoroallyl)-5-ethyl-2,5-dihydro-4H-pyrazolo[4,3-c]pyridin-4-one], the IC50 on MAO-A is greater than 100000 nM; against rhVAP-1, 33 nM.
